One may read the Ki as the equilibrium dissociation constant of an inhibitor or competing ligand from its target.

In this experiment the target is T1, recombinant human EP-2 receptor (Homo sapiens, UniProt P43116).
T1 construct: stably transfected with full length cDNA encoding human Prostaglandin E2; expressed in transfected cells
T1 sequence (P43116 whole entry): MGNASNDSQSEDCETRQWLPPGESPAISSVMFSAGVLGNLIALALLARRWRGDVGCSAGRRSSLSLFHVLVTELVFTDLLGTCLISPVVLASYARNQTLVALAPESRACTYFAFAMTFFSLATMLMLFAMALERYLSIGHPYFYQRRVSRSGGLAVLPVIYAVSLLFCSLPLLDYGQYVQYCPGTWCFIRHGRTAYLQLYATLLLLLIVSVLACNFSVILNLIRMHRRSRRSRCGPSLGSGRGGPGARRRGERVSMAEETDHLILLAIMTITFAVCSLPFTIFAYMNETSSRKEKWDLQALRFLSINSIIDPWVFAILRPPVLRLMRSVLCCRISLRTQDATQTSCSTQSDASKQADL
The experiment in a line: In vitro antagonist potency against recombinant human prostaglandin E2 (EP-2) receptor in CHO cells (cAMP, Protocol 1). It counts as cell-based. The settings on record: CHO cells expressing recombinant human EP-2 receptor, stimulated with 5 nM PGE2; cAMP readout; Ki by Cheng-Prusoff equation; read-out: EP2 Ki. The procedure: 1.0 Measurement of In Vitro Antagonist Potency (IC50) of Compounds Against Recombinant Human Prostaglandin E2 Receptor in CHO Cells
The prostaglandin E2 (EP-2) receptor is Gs coupled and agonism of the receptor by PGE2 results in activation of intracellular adenylate cyclase enzymes that synthesise the second messenger signalling molecule, adenosine 3′,5′-cyclic monophosphate (cAMP). CHO cells expressing the recombinant human EP-2 receptor are stimulated with PGE2 (5 nM) equivalent to approximately […] values to give the maximal cAMP signal. Decreases in cAMP levels following treatment of stimulated recombinant EP-2 cells with potential antagonist compounds were measured and potency (IC50) calculated as follows.
A Chinese hamster ovary (CHO) cell line stably transfected with full length cDNA encoding human Prostaglandin E2 was established using standard molecular biology methods. Test compounds were dissolved in dimethyl sulphoxide (DMSO) at 4 mM. 11 point half log unit increment dilution series of test compound were prepared in DMSO then diluted 1 in 40 in a buffer comprised of phosphate buffered saline (PBS) and 0.05% pluronic F-127 surfactant. Freshly cultured cells at 80-90% confluence were harvested and re-suspended in 90% growth media/10% DMSO. The cells were frozen using a planar freezer and stored in frozen aliquots in cryovials in liquid nitrogen until the day of the experiment. A vial of cells was defrosted in a 37° C. water bath for 2 min, then transferred to 10 ml of Dulbecco's Modified Eagle's Medium (DMEM). The cells were then centrifuged for 5 min at 1000 g and the pellet re-suspended at 1,000,000 cells/ml in DMEM. 5,000 cells (5 ul) were added to 5 ul of the compound dilution series in a 384 well assay plate and pre-incubated for 30 min at 37° C. 5 ul of agonist (15 nM PGE2 in PBS to give 5 nM FAC) was added and plates further incubated for 90 min at 37° C. The relative cAMP concentration in each well was then measured using a β-galactosidase enzyme fragment complementation method purchased in kit form as the Discoverx cAMP II kit from GE Healthcare, UK. […] Sigmoidal curves were fitted to plots of log10 inhibitor concentration vs percent effect. IC50 estimates were determined as the concentration of test compound giving an effect half way between the bottom and top asymptotes of the sigmoidal dose response curve. Each experiment included an IC50 determination for the literature compound as a standard to track assay consistency and allow fair comparison between values obtained in different experiments. The EC50 of PGE2 is used in combination with the ligand concentration in the assay to determine Ki values for antagonist dose responses using the Cheng-Prusoff equation. Consequently an agonist dose response curve is carried out for each experiment using the same incubation as the antagonist plate.
For the compound `O=C(c1ccc(F)cc1)N1CCC(COc2ccc(-c3ccc(Cl)cc3)nc2)(C(=O)O)C1` (single isomer, unassigned) [Example 7], the Ki came to 2.97 nM.
On to `O=C(Nc1ccc(Cl)cc1)N1CCC(COc2ccc(-c3ccc(F)cc3)cc2)(C(=O)O)C1` (single isomer, unassigned) [Example 102], for which the Ki stood at 160 nM.
To `COc1ccc(C(=O)N2CCC(COc3cnc(-c4ccc(Cl)cc4)nc3)(C(=O)O)C2)cc1` (single isomer, unassigned) [Example 49] belongs 124 nM.
To `O=C(C1CCC1)N1CCC(COc2ccc(-c3ccc(F)cc3)cc2)(C(=O)O)C1` (single isomer, unassigned) [Example 79] belongs 21.3 nM; to `O=C(Nc1ccccc1F)N1CCC(COc2ccc(-c3ccc(F)cc3)cc2)(C(=O)O)C1` (single isomer, unassigned) [Example 104], 392 nM.
The value for `COc1ccccc1C(=O)N1CCC(COc2ccc(-c3ncc(Cl)cn3)cc2)(C(=O)O)C1` (single isomer, unassigned) [Example 73] was 459 nM.
Consider `COc1ccc(C(=O)N2CCC(COc3ccc(-c4ncc(Cl)cn4)cc3)(C(=O)O)C2)cc1` (single isomer, unassigned) [Example 43], for which the Ki was 145 nM.
The value for `O=C(c1ccc(Cl)cc1)N1CCC(COc2ccc(-c3ccc(Cl)cc3)nc2)(C(=O)O)C1` (single isomer, unassigned) [Example 32] was 0.735 nM.
To `O=C(c1ccc(F)cc1)N1CCC(COc2cnc(-c3ccc(Cl)cc3)cn2)(C(=O)O)C1` (single isomer, unassigned) [Example 11] belongs 28.9 nM; to `COc1ccc(NC(=O)N2CCC(COc3ccc(-c4ccc(F)cc4)cc3)(C(=O)O)C2)cc1` (single isomer, unassigned) [Example 96], 178 nM.
To `O=C(c1ccc(F)cc1)N1CCC(COc2ccc(-c3ncc(Cl)cn3)cc2)(C(=O)O)C1` (single isomer, unassigned) [Example 15] belongs 84.7 nM; to `COc1ccc(NC(=O)N2CCC(COc3ccc(-c4ccc(F)cc4)cc3)(C(=O)O)C2)cc1` (single isomer, unassigned) [Example 95], 1.03 nM; to `Cc1ccc(OC(=O)N2CCC(COc3ccc(-c4ccc(F)cc4)cc3)(C(=O)O)C2)cc1` (single isomer, unassigned) [Example 87], 225 nM.
On to `CCOc1ccccc1C(=O)N1CCC(COc2cnc(-c3ccc(Cl)cc3)nc2)(C(=O)O)C1` (single isomer, unassigned) [Example 58], for which the Ki was determined as 884 nM.
Turning to `COc1ccc(C(=O)N2CCC(COc3ccc(-c4ncc(Cl)cn4)cc3)(C(=O)O)C2)cc1` (single isomer, unassigned) [Example 42], the Ki was found to be 2.93 nM.
Take `N#Cc1ccc(-c2ccc(OCC3(C(=O)O)CCN(C(=O)c4ccc(F)cc4)C3)cc2)cc1` (single isomer, unassigned) [Example 2, 3-(4′-Cyano-biphenyl-4-yloxymethyl)-1-(4-fluoro-benzoyl)-pyrrolidine-3-carboxylic acid]: the Ki worked out at 0.344 nM.
To `COc1ccccc1C(=O)N1CCC(COc2ccc(-c3ccc(F)cc3)cc2)(C(=O)O)C1` (single isomer, unassigned) [Example 68] belongs 14.6 nM.
As for `COc1ccc(C(=O)N2CCC(COc3ccc(-c4ccc(F)cc4)cc3)(C(=O)O)C2)cc1` (single isomer, unassigned) [Example 41], the Ki stood at 66.9 nM.
The value for `O=C(c1ccc(Cl)cc1)N1CCC(COc2cnc(-c3ccc(Cl)cc3)cn2)(C(=O)O)C1` (single isomer, unassigned) [Example 35] was 105 nM.
To `CCOc1ccccc1C(=O)N1CCC(COc2cnc(-c3ccc(Cl)cc3)cn2)(C(=O)O)C1` (single isomer, unassigned) [Example 51] belongs 19.3 nM.
As to `COc1ccc(C(=O)N2CCC(COc3cnc(-c4ccc(Cl)cc4)cn3)(C(=O)O)C2)cc1` (single isomer, unassigned) [Example 38], the Ki is 3.08 nM.
The value for `O=C(c1ccc(F)cc1)N1CCC(COc2ccc(-c3ccc(F)cc3)cc2)(C(=O)O)C1` (single isomer, unassigned) [Example 18] was 17.2 nM; that for `O=C(c1ccc(Cl)cc1)N1CCC(COc2ccc(-c3ccc(F)cc3)cc2)(C(=O)O)C1` (single isomer, unassigned) [Example 37] was 30.3 nM.
To `O=C(c1ccc(F)cc1)N1CCC(COc2cnc(-c3ccc(Cl)cc3)nc2)(C(=O)O)C1` (single isomer, unassigned) [Example 6] belongs 102 nM; to `CCOc1ccccc1C(=O)N1CCC(COc2ccc(-c3ccc(F)cc3)cc2)(C(=O)O)C1` (single isomer, unassigned) [Example 54], 389 nM.
For `COc1ccc(C(=O)N2CCC(COc3ccc(-c4ccc(Cl)cc4)nc3)(C(=O)O)C2)cc1` (single isomer, unassigned) [Example 44], the Ki turned out to be 3.83 nM.
For `O=C(Nc1ccccc1Cl)N1CCC(COc2ccc(-c3ccc(F)cc3)cc2)(C(=O)O)C1` (single isomer, unassigned) [Example 99], the Ki turned out to be 1.99 nM.
The value for `COc1ccc(C(=O)N2CCC(COc3ccc(-c4ccc(Cl)cn4)cc3)(C(=O)O)C2)cc1` (single isomer, unassigned) [Example 46] was 23.7 nM.
The value for `COc1ccccc1C(=O)N1CCC(COc2ccc(-c3ccc(F)cc3)cc2)(C(=O)O)C1` (single isomer, unassigned) [Example 69] was 309 nM; that for `O=C(c1ccc(F)cc1)N1CCC(COc2ccc(-c3ccc(F)cc3)cc2)(C(=O)O)C1` (single isomer, unassigned) [Example 17] was 2.01 nM.
The value for `O=C(Oc1ccc(Cl)cc1)N1CCC(COc2ccc(-c3ccc(F)cc3)cc2)(C(=O)O)C1` (single isomer, unassigned) [Example 88] was 14.9 nM; that for `O=C(Nc1ccccc1Cl)N1CCC(COc2ccc(-c3ccc(F)cc3)cc2)(C(=O)O)C1` (single isomer, unassigned) [Example 100] was 518 nM.
For `COc1ccccc1C(=O)N1CCC(COc2ccc(-c3ccc(C#N)cc3)cc2)(C(=O)O)C1` (single isomer, unassigned) [Example 67], the Ki was found to be 85.7 nM.
As for `O=C(c1ccc(F)cc1)N1CCC(COc2ccc(-c3ccc(Cl)cn3)cc2)(C(=O)O)C1` (single isomer, unassigned) [Example 12], the Ki was 4.82 nM.
Turning to `O=C(c1ccc(F)cc1)N1CCC(COc2cccc(F)c2F)(C(=O)O)C1` (single isomer, unassigned) [Example 14], the Ki is 522 nM.
The value for `COc1ccc(C(=O)N2CCC(COc3cnc(-c4ccc(Cl)cc4)nc3)(C(=O)O)C2)cc1` (single isomer, unassigned) [Example 50] was 1.88 nM.
As to `COc1ccc(C(=O)N2CCC(COc3ccc(-c4ccc(F)cc4)cc3)(C(=O)O)C2)cc1` (single isomer, unassigned) [Example 40], the Ki is 2.36 nM.
The value for `COc1ccccc1C(=O)N1CCC(COc2ccc(-c3ncc(F)cn3)cc2)(C(=O)O)C1` (single isomer, unassigned) [Example 64] was 621 nM; that for `O=C(Oc1ccc(F)cc1)N1CCC(COc2ccc(-c3ccc(F)cc3)cc2)(C(=O)O)C1` (single isomer, unassigned) [Example 91] was 37.4 nM.

Values taken from US8278343B2, “Pyrrolidines” (Pfizer Inc., priority 2008, dated 2012).
